In ChEMBL document CHEMBL5385865, “Discovery and optimization of 2-(trifluoromethyl)benzimidazole derivatives as novel ferroptosis inducers in vitro and in vivo” (Eur J Med Chem, 2023):
Active and inactive are the calls of the source. The rule behind the calls is not given here.

Key:
HepG2 [1] = experiment: Lethality in human HepG2 cells assessed as decrease in cell viability at 10 uM incubated for 48 hrs by MTT assay; type: functional, cell-based
[2] = Toxicity in BALB/c nude mouse xenografted with human HepG2 cells assessed as effect on serum CREA level at 15 to 30 mg/kg, ip administered every other day for 21 days; type: organism-based; conditions: in vivo, 504 h, dose 15-30 mg/kg, time 21 day
786-0 [3] = experiment: Lethality in human 786-0 cells assessed as inhibition of cell viability incubated for 24 hrs by MTT assay; type: functional, cell-based; conditions: 786-0, 24 h
[4] = Toxicity in BALB/c nude mouse xenografted with human HepG2 cells assessed as effect on serum LDH level at 15 to 30 mg/kg, ip administered every other day for 21 days; type: organism-based; conditions: in vivo, 504 h, dose 15-30 mg/kg, time 21 day
HepG2 [5] = experiment: Induction of ferroptosis in human HepG2 cells xenografted in BALB/c nude mouse assessed as increase in MDA level administered intraperitoneally every other day for 21 days; type: functional; conditions: dose 15-30 mg/kg, route ip, time 21.0 day
HT-1080 [6] = experiment: Induction of ferroptosis in human HT-1080 cells assessed as cell death incubated for 24 hrs by morphology based microscopy; type: functional; conditions: dose 0.5-5 µM
[7] = Metabolic stability in human liver microsomes assessed as half life at 1 uM in presence of NADPH by LC-MS analysis; type: ADME, Microsome
[8] = Toxicity in human NCM460 cells upto 20 uM incubated for 48 hrs by MTT assay; type: cell-based; conditions: ncm460, 48 h
HT-1080 [9] = experiment: Induction of ferroptosis in human HT-1080 cells assessed as increase in cytosolic ROS accumulation at 5 uM incubated for 10 hrs in presence of Fer-1 by H2DCFDA probe based flow cytometry; type: functional, cell-based
HepG2 [10] = experiment: Inhibition of cell proliferation in human HepG2 cells xenografted in BALB/c nude mouse at 15 to 30 mg/kg, ip administered every other day for 21 days by Ki67 staining based IHC analysis; type: functional, organism-based; conditions: dose 15-30 mg/kg, time 21.0 day
MDA-MB-231 = experiment: Lethality in human MDA-MB-231 cells assessed as decrease in cell viability at 10 uM incubated for 48 hrs in presence of DFO by MTT assay; type: functional, cell-based
DU-145 = experiment: Lethality in human DU-145 cells assessed as decrease in cell viability at 10 uM incubated for 48 hrs in presence of DFO by MTT assay; type: functional, cell-based
786-0 [11] = experiment: Lethality in human 786-0 cells assessed as decrease in cell viability at 10 uM incubated for 48 hrs by MTT assay; type: functional, cell-based
HepG2 [12] = experiment: Lethality in human HepG2 cells assessed as decrease in cell viability at 10 uM incubated for 48 hrs in presence of DFO by MTT assay; type: functional, cell-based
HeLa [13] = experiment: Lethality in human HeLa cells assessed as decrease in cell viability at 10 uM incubated for 48 hrs by MTT assay; type: functional, cell-based
[14] = Toxicity in BALB/c nude mouse xenografted with human HepG2 cells assessed as effect on serum UREA level at 15 to 30 mg/kg, ip administered every other day for 21 days; type: organism-based; conditions: in vivo, 504 h, dose 15-30 mg/kg, time 21 day
HeLa [15] = experiment: Lethality in human HeLa cells assessed as decrease in cell viability at 10 uM incubated for 48 hrs in presence of DFO by MTT assay; type: functional, cell-based
[16] = Toxicity in BALB/c nude mouse xenografted with human HepG2 cells assessed as histological change in spleen at 15 to 30 mg/kg, ip administered every other day for 21 days by H and E staining based analysis; type: organism-based; conditions: in vivo, 504 h, dose 15-30 mg/kg, time 21 day
786-0 [17] = experiment: Lethality in human 786-0 cells assessed as decrease in cell viability at 10 uM incubated for 48 hrs in presence of Fer-1 by MTT assay; type: functional, cell-based
[18] = Toxicity in BALB/c nude mouse xenografted with human HepG2 cells assessed as histological change in heart at 15 to 30 mg/kg, ip administered every other day for 21 days by H and E staining based analysis; type: organism-based; conditions: in vivo, 504 h, dose 15-30 mg/kg, time 21 day
[19] = target: T1, Cystine/glutamate transporter (Homo sapiens) (UniProt Q9UPY5); experiment: Inhibition of Xc- in human HT-1080 cells assessed as decrease in glutamate release incubated for 3 hrs by Amplex red assay; type: cell-based; conditions: dose 0.5-5 µM
T1 sequence (whole entry): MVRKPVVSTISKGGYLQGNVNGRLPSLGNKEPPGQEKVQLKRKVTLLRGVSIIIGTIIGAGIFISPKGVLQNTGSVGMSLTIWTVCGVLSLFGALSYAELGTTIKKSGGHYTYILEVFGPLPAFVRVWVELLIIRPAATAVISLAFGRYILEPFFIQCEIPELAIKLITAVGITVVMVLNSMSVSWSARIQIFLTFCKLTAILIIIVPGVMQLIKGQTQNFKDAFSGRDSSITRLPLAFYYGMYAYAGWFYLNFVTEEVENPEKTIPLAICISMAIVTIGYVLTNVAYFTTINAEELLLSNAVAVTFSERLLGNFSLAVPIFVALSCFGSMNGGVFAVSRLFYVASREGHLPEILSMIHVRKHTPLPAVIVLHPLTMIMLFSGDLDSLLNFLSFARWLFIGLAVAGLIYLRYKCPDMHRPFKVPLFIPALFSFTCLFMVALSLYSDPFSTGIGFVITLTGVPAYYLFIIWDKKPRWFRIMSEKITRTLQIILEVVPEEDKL

HT-1080 [20] = experiment: Induction of ferroptosis in human HT-1080 cells assessed as increase in SLC7A11 mRNA level incubated for 18 hrs by qPCR analysis; type: functional, cell-based; conditions: dose 0.5-5 µM
[21] = Toxicity in human AC16 cells upto 20 uM incubated for 48 hrs by MTT assay; type: cell-based; conditions: ac16 [human hybrid]
HT-1080 [22] = experiment: Induction of ferroptosis in human HT-1080 cells assessed as cell death at 10 uM incubated for 24 hrs in presence of Z-VAD-FMK by MTT assay; type: functional, cell-based
HepG2 [23] = experiment: Lethality in human HepG2 cells assessed as decrease in cell viability at 10 uM incubated for 48 hrs in presence of Fer-1 by MTT assay; type: functional, cell-based
HepG2 [24] = experiment: Antitumor activity against human HepG2 cells xenografted in BALB/c nude mouse assessed as tumor growth inhibition at 15 mg/kg, ip administered every other day for 21 days by electronic caliper analysis relative to control; type: functional; conditions: HepG2, 504 h, time 21 day, read-out: TGI
HepG2 [25] = experiment: Antitumor activity against human HepG2 cells xenografted in BALB/c nude mouse assessed as tumor growth inhibition at 30 mg/kg, ip administered every other day for 21 days by electronic caliper analysis relative to control; type: functional; conditions: HepG2, 504 h, time 21 day, read-out: TGI
[26] = Metabolic stability in […] rat microsomes assessed as half life at 1 uM in presence of NADPH by LC-MS analysis; type: ADME, Liver, Microsome
HepG2 [27] = experiment: Antitumor activity against human HepG2 cells xenografted in BALB/c nude mouse assessed as tumor weight reduction administered intraperitoneally every other day for 21 days; type: functional; conditions: dose 15-30 mg/kg, route ip, time 21.0 day
[28] = Toxicity in BALB/c nude mouse xenografted with human HepG2 cells assessed as effect on serum TBIL level at 15 to 30 mg/kg, ip administered every other day for 21 days; type: organism-based; conditions: in vivo, 504 h, dose 15-30 mg/kg, time 21 day
HT-1080 [29] = experiment: Induction of ferroptosis in human HT-1080 cells assessed as cell death at 5 uM incubated for 24 hrs in presence of beta-mercaptoethanol by MTT assay; type: functional, cell-based

**Q.** What does the source list for CN(C)S(=O)(=O)c1ccc(N2CCC(Cn3c(C(F)(F)F)nc4ccccc43)CC2)cc1?
**A.** Activity (HepG2 [1]): Active; Activity [2]: Non-Toxic; IC50 (786-0 [3]): 700 nM; Activity [4]: Non-Toxic; Activity (HepG2 [5]): Dose-Dependent Effect; Activity (HT-1080 [6]): Dose-Dependent Effect; half-life at 1 µM [7]: 15.6 min; Activity [8]: Non-Toxic; Activity (HT-1080 [9]): inactive; inhibition (HepG2 [10]): Active; Activity (MDA-MB-231): inactive; Activity (DU-145): inactive; Activity (786-0 [11]): Active; Activity (HepG2 [12]): inactive; Activity (HeLa [13]): Active; Activity [14]: Non-Toxic; Activity (HeLa [15]): inactive; Activity [16]: Non-Toxic; Activity (786-0 [17]): inactive; Activity [18]: Non-Toxic; inhibition [19]: Dose-Dependent Effect; Activity (HT-1080 [20]): Dose-Dependent Effect; Activity [21]: Non-Toxic; Activity (HT-1080 [22]): Active; Activity (HepG2 [23]): inactive; inhibition in vivo at 15 mg/kg (HepG2 [24]): 47.6%; inhibition in vivo at 30 mg/kg (HepG2 [25]): 77.1%; half-life at 1 µM [26]: 10.4 min; Activity (HepG2 [27]): Dose-Dependent Effect; Activity [28]: Non-Toxic; Activity (HT-1080 [29]): inactive
